Values quoted from earlier work, collected in patent US20230190776A1, “ENCAPSULATION OF BIOACTIVE INGREDIENTS BY MULTIPLEX EMULSION” (The Board of Regents of the University of Texas System, priority 2021, published 2023).

Details: up to 14 weeks of administrations; species not given

## O=C1CCC[C@@H]2[C@H]3CCC[N+]4([O-])CCC[C@@H](CN12)[C@@H]34 (stereo partly shown) [Oxymatrine]
  lethal dose: around 300 mg/kg
